Assay results: US20210198318A1, “Methods and Compositions for Treating Diseases and Conditions Associated with Gonadotropin Releasing Hormone Receptor” (The Board of Regents of the University of Oklahoma, priority 2018, published 2021)
Non-standard residues stand in square brackets, D forms with d. Residues, ends and D or L forms follow the SMILES beside them. dPhe(4-Cl) = N[C@H](Cc1ccc(Cl)cc1)C(=O)O; d2Nal = N[C@H](Cc1ccc2ccccc2c1)C(=O)O; dCit = NC(=O)NCCC[C@@H](N)C(=O)O; d3Pal = N[C@H](Cc1cccnc1)C(=O)O

Key:
Abs present in the sera = assay: Mimotope PIN ELISA with sequential GnRHR-ECL2 synthetic peptides and PCOS serum; assay type: binding, human; conditions: sera 1:200; 8-mer pins offset by two amino acids
Procedure: The peaks represent sites of increased binding by Abs present in the sera. The amino acid sequence for each pin is shown at the bottom. Representative PCOS with 2 dominant peaks. Each color bar represents the time of O.D. reading after addition of chromagen (30, 60, and 90 min).
A Mimotope PIN ELISA assay was performed on 11 PCOS subjects and 5 control subjects using sequential GnRHR-ECL2 synthetic peptides, each 8 amino acid residues in length, and each one different from the preceding peptide by addition of the next two C-terminal residues and removal of the last 2 N-terminal residues (see Table 1). The specific peptides were biochemically bonded to the tip of the pin that is attached to the 96 well plate cover in such a fashion that the peptides were immersed in the buffer/sera (1:200) mixture in the well. After incubation, the pins and wells were washed thoroughly, and the well mixture was then replaced by the anti-human-2nd AB (1:10,000) and incubated and washed again; the colorimetric agent was then added. The wells were sequentially counted at 10 min intervals, and values were compared for analysis of O.D. for each pin. The values and pin sequences are shown with time of reading in color code.

GnRHR = molecular target: T1, GnRHR (Homo sapiens, UniProt P30968); assay: GnRHR-transfected Chem-1 cell-based calcium flux assay; conditions: for dosage at which the assay responds (relative Ca^2+ induced Fluo-8 NW fluorescence, % of maximal fluorescence): GnRHR-transfected cells, dosage response curve, n=4
T1 construct: host or cells: Chem-1 cells
T1 sequence (P30968 1-328): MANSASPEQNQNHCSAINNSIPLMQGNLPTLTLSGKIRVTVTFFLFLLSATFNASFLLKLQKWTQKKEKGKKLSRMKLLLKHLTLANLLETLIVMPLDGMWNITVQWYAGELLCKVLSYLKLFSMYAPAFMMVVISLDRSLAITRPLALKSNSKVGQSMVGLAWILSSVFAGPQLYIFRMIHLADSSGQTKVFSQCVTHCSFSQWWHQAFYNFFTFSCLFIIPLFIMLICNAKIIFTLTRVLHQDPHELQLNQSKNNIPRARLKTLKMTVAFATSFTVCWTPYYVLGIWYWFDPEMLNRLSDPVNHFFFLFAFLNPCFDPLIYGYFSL
Procedure: Cell-based GnRHR-AAb Activity Assays: Activity of GnRHR AAb in IgG purified from sera of subjects with PCOS and controls were analyzed with a GnRHR-transfected Chem-1 cell-based calcium flux assay (Eurofins Scientific, USA). Briefly, Chem-1 cells were dispensed into 96-well plates and incubated 24 h, after which assay plates were washed sufficiently with Hank's Balanced Salt Solution (HBSS) supplemented with 20 mM HEPES, 2.5 mM Probenecid at pH 7.4 to remove all trace of Media. Component. Serum-derived IgG (0.1 mg/mL) was added in the presence and absence of the non-selective GnRHR blockade. Samples were tested in triplicate. FLUO-8®, AM Ca^2+ dye (Cat No: 21080, AAT Bioquest, Inc., Sunnyvale, Calif.) was prepared by dissolving 1 mg of Fluo-8 NW in […] and applied to the assay plate (Ca^2+ dye at 10 μL/10 mL is sufficient for loading one plate). Excitation wave length was set at 470-495 nm and emission wave length at 515-565 nm for Ca^2+ dyes. Maximal fluorescence signal was obtained by HIDEX Sense reader.
Methods Summary: Infertile PCOS subjects based on Rotterdam criteria and infertile ovulatory controls seen at an academic fertility clinic 2012-2016 were included in the study if they had stored serum prior to beginning treatment. Serum was screened by ELISA for AAbs to GnRHR using a synthetic 28-mer peptide from the ECL2 and ECL 1 of human GnRHR as coating antigen. Optical density (OD) values were read at 405 nm at 60 minutes. Activity of GnRHR AAb in sera and in IgG purified from sera of 4 subjects with PCOS and 4 controls was analyzed with a GnRHR-transfected Chem-1 cell-based calcium flux assay. AAb-specific effect was tested by GnRHR blockade. Group data are presented as mean±SD or percent. Groups were compared using Student t or Pearson chi-squared tests. An ROC curve was used to assess OD as a diagnostic test for PCOS.

Compound | dosage at which the assay responds (relative Ca^2+ induced Fluo-8 NW fluorescence, % of maximal fluorescence) (GnRHR) | site of increased binding by Abs in PCOS sera (minipin ELISA peak) (Abs present in the sera) | also measured
VTHCSFSQ (listed as Homo sapiens) [SEQ ID NO:6] | – | Overlapping Peak 2 | –
CC(=O)N[C@H](Cc1ccc2ccccc2c1)C(=O)N[C@H](Cc1ccc(Cl)cc1)C(=O)N[C@H](Cc1cccnc1)C(=O)N[C@@H](CO)C(=O)N[C@@H](Cc1ccc(O)cc1)C(=O)N[C@H](CCCNC(N)=O)C(=O)N[C@@H](CC(C)C)C(=O)N[C@@H](CCCNC(=N)N)C(=O)N1CCC[C@H]1C(=O)N[C@H](C)C(N)=O [cetrorelix] (Ac-[d2Nal][dPhe(4-Cl)][d3Pal]SY[dCit]LRP[dA]-NH2) | – | – | effect on GnRHR activity (relative fluorescence, % of maximum fluorescence) of PCOS subjects (GnRHR; cetrorelix 10^−5M, 2-hour exposure, samples from PCOS subjects): suppressed the relative fluorescence expressed as % of maximum fluorescence to baseline; effect on GnRHR activity (relative fluorescence, % of maximum fluorescence) of control subjects (GnRHR; cetrorelix 10^−5M, 2-hour exposure, samples from control subjects): not significantly changed
FSQCVTHC (listed as Homo sapiens) [SEQ ID NO:8] | – | Overlapping Peak 1 | –

More lines, main results first:

dosage at which the assay responds (relative Ca^2+ induced Fluo-8 NW fluorescence, % of maximal fluorescence) (GnRHR) | Compound | site of increased binding by Abs in PCOS sera (minipin ELISA peak) (Abs present in the sera) | also measured
10^−9 M | human Leutenizing Hormone Releasing Hormone [hLHRH] | – | –
10^−8 M | CCNC(=O)[C@@H]1CCCN1C(=O)[C@H](CCCNC(=N)N)NC(=O)[C@H](CC(C)C)NC(=O)[C@@H](CC(C)C)NC(=O)[C@H](Cc1ccc(O)cc1)NC(=O)[C@H](CO)NC(=O)[C@H](Cc1c[nH]c2ccccc12)NC(=O)[C@H](Cc1c[nH]cn1)NC(=O)[C@@H]1CCC(=O)N1 [leuprolide] | – | total GnRHR activity of leuprolide in the presence of IgG purified from PCOS subjects versus buffer+leuprolide (GnRHR; GnRHR transfected cells, n=4, p<0.01): increased the total activity at least in an additive fashion
